Experiment: xn = mol fraction of the nth substance listed
Details: Liquid, Pycnometric method

COC(=O)OC [dimethyl carbonate] + O=C=O
mass density [kg/m3]
Details	332.85 K	337.45 K
8220 kPa, x1 = 0.0242	–	212
8340 kPa, x1 = 0.0242	–	217
8440 kPa, x1 = 0.0242	–	222
8530 kPa, x1 = 0.0242	–	226
8640 kPa, x1 = 0.0242	–	231
8730 kPa, x1 = 0.0242	–	236
8820 kPa, x1 = 0.0242	–	242
8920 kPa, x1 = 0.0242	–	247
9030 kPa, x1 = 0.0242	–	253
9130 kPa, x1 = 0.0242	–	259
9240 kPa, x1 = 0.0242	–	266
9350 kPa, x1 = 0.0242	–	272
9460 kPa, x1 = 0.0242	–	279
9570 kPa, x1 = 0.0242	–	287
9690 kPa, x1 = 0.0242	–	295
9760 kPa, x1 = 0.1484	–	790
9810 kPa, x1 = 0.0242	–	304
9820 kPa, x1 = 0.118	773	–
9910 kPa, x1 = 0.0242	353	–
9920 kPa, x1 = 0.1484	826	–
9930 kPa, x1 = 0.0242	–	311
9960 kPa, x1 = 0.086	682	–
10010 kPa, x1 = 0.0242	362	–
10030 kPa, x1 = 0.086	686	–
10040 kPa, x1 = 0.118	780	–
10060 kPa, x1 = 0.1484	–	795
10090 kPa, x1 = 0.0481	484	–
10110 kPa, x1 = 0.0242	371	–
10180 kPa, x1 = 0.118	–	737
10200 kPa, x1 = 0.0242	381	–
10200 kPa, x1 = 0.086	695	–
10250 kPa, x1 = 0.0481	506	–
10290 kPa, x1 = 0.1484	832	–
10300 kPa, x1 = 0.0242	391	–
10350 kPa, x1 = 0.0481	517	–
10350 kPa, x1 = 0.118	788	743
10380 kPa, x1 = 0.0242	399	–
10380 kPa, x1 = 0.086	704	–
10420 kPa, x1 = 0.0481	525	–
10450 kPa, x1 = 0.0481	–	450
10450 kPa, x1 = 0.086	–	631
10480 kPa, x1 = 0.086	–	634
10490 kPa, x1 = 0.0242	410	–
10520 kPa, x1 = 0.0481	538	–
10530 kPa, x1 = 0.086	711	–
10530 kPa, x1 = 0.1484	–	804
10550 kPa, x1 = 0.086	–	640
10580 kPa, x1 = 0.0242	417	–
10620 kPa, x1 = 0.118	–	751
10630 kPa, x1 = 0.086	–	644
10640 kPa, x1 = 0.0481	550	–
10670 kPa, x1 = 0.0481	–	470
10720 kPa, x1 = 0.1484	839	–
10740 kPa, x1 = 0.0481	560	–
10740 kPa, x1 = 0.118	796	–
10780 kPa, x1 = 0.0481	–	481
10800 kPa, x1 = 0.086	–	654
10820 kPa, x1 = 0.1484	–	809
10860 kPa, x1 = 0.086	724	–
10890 kPa, x1 = 0.0481	574	492
10940 kPa, x1 = 0.118	–	760
11010 kPa, x1 = 0.0481	–	504
11060 kPa, x1 = 0.0481	588	–
11080 kPa, x1 = 0.086	–	669
11160 kPa, x1 = 0.0481	–	517
11200 kPa, x1 = 0.118	805	–
11230 kPa, x1 = 0.1484	–	816
11250 kPa, x1 = 0.1484	846	–
11260 kPa, x1 = 0.0481	603	–
11270 kPa, x1 = 0.086	738	–
11290 kPa, x1 = 0.118	–	769
11310 kPa, x1 = 0.0481	–	530
11380 kPa, x1 = 0.086	–	684
11480 kPa, x1 = 0.0481	–	543
11500 kPa, x1 = 0.0481	619	–
11650 kPa, x1 = 0.0481	–	558
11700 kPa, x1 = 0.118	–	779
11720 kPa, x1 = 0.1484	–	823
11730 kPa, x1 = 0.1484	851	–
11740 kPa, x1 = 0.118	815	–
11750 kPa, x1 = 0.086	751	–
11760 kPa, x1 = 0.0481	636	–
11780 kPa, x1 = 0.086	–	700
11850 kPa, x1 = 0.0481	–	573
11990 kPa, x1 = 0.0481	650	–
12100 kPa, x1 = 0.0481	–	589
12160 kPa, x1 = 0.118	822	–
12190 kPa, x1 = 0.118	–	789
12240 kPa, x1 = 0.1484	–	830
12260 kPa, x1 = 0.1484	858	–
12270 kPa, x1 = 0.086	765	716
12280 kPa, x1 = 0.0481	663	–
12360 kPa, x1 = 0.0481	–	607
12630 kPa, x1 = 0.0481	678	–
12660 kPa, x1 = 0.118	–	798
12700 kPa, x1 = 0.118	830	–
12740 kPa, x1 = 0.1484	–	838
12750 kPa, x1 = 0.086	775	–
12750 kPa, x1 = 0.1484	863	–
12800 kPa, x1 = 0.086	–	732
13170 kPa, x1 = 0.086	–	742
13190 kPa, x1 = 0.118	837	–
13220 kPa, x1 = 0.118	–	807
13230 kPa, x1 = 0.086	784	–
13240 kPa, x1 = 0.1484	–	843
13270 kPa, x1 = 0.1484	869	–
13640 kPa, x1 = 0.118	–	814
13700 kPa, x1 = 0.118	843	–
13730 kPa, x1 = 0.086	–	755
13730 kPa, x1 = 0.1484	–	849
13760 kPa, x1 = 0.086	794	–
13800 kPa, x1 = 0.1484	874	–
14170 kPa, x1 = 0.118	–	821
14220 kPa, x1 = 0.086	–	766
14230 kPa, x1 = 0.118	850	–
14270 kPa, x1 = 0.1484	–	855
14290 kPa, x1 = 0.086	803	–
14520 kPa, x1 = 0.1484	881	–
14710 kPa, x1 = 0.086	–	775
14720 kPa, x1 = 0.086	810	–
14730 kPa, x1 = 0.118	–	829
14760 kPa, x1 = 0.118	856	–
14780 kPa, x1 = 0.1484	–	861
15020 kPa, x1 = 0.1484	885	–
15150 kPa, x1 = 0.086	–	783
15280 kPa, x1 = 0.118	–	836
15290 kPa, x1 = 0.118	861	–
15330 kPa, x1 = 0.086	819	–
15350 kPa, x1 = 0.1484	–	866
15460 kPa, x1 = 0.1484	889	–
15740 kPa, x1 = 0.086	–	792
15740 kPa, x1 = 0.118	866	–
15760 kPa, x1 = 0.086	825	–
15770 kPa, x1 = 0.118	–	842
15800 kPa, x1 = 0.1484	–	870
15940 kPa, x1 = 0.1484	893	–
16200 kPa, x1 = 0.086	831	–
16250 kPa, x1 = 0.086	–	801
16370 kPa, x1 = 0.118	872	–
16400 kPa, x1 = 0.118	–	849
16600 kPa, x1 = 0.1484	–	881
16670 kPa, x1 = 0.1484	899	–
